Data as given in patent US20260374731A1, “ANTIMICROBIAL CONJUGATED OLIGOELECTROLYTES AS BROAD-SPECTRUM ANTIBIOTICS” (The Regents of the University of California, priority 2023, published 2026).

What was measured:
[1] = test system: Klebsiella pneumoniae (KPN) ATCC 700603; assay: Susceptibility test (MIC), broth dilution, Klebsiella pneumoniae; type: cell-based; settings: ATCC700603, Klebsiella pneumoniae ATCC 700603, 14-20 hour incubation, read-out: Minimum Inhibitory Concentration
Protocol: (§1) The minimum inhibitory concentration (MIC) was determined according to the Clinical and Laboratory Standards Institute (CLSI) guidelines by broth dilution. Bacteria were cultured in an appropriate medium (such as Cation-Adjusted Muller Hinton Broth) for 6-12 hours and diluted into same medium containing 2-fold serial dilutions of antibiotics. MIC values were derived after 14-20 hour incubation, and were the result of at least 3 independent determinations. The MIC study included Gram-negative strains Salmonella enterica Typhimurium (ST) ATCC 14028, E. coli (EC) ATCC 25922, Pseudomonas aeruginosa (PA) ATCC 27853, and Klebsiella pneumoniae (KPN) ATCC 700603 and Gram-positive strain S. aureus (SA) ATCC 259213.

E. coli (EC) ATCC 25922 = assay: Susceptibility test (MIC), broth dilution, E. coli; type: cell-based; settings: Escherichia coli, ATCC25922, E. coli ATCC 25922, 14-20 hour incubation, read-out: Minimum Inhibitory Concentration
Protocol: as §1

[2] = test system: Pseudomonas aeruginosa (PA) ATCC 27853; assay: Susceptibility test (MIC), broth dilution, Pseudomonas aeruginosa; type: cell-based; settings: ATCC27853, Pseudomonas aeruginosa ATCC 27853, 14-20 hour incubation, read-out: Minimum Inhibitory Concentration
Protocol: as §1

[3] = test system: S. aureus (SA) ATCC 259213; assay: Susceptibility test (MIC), broth dilution, S. aureus; type: cell-based; settings: Staphylococcus aureus, ATCC259213, read-out: Minimum Inhibitory Concentration
Protocol: as §1

[4] = Cytotoxicity, MTT viability assay, HepG2; type: cell-based; settings: human, hepg2 cells; HepG2, MTT, 24 h incubation, 8 to 1024 μg/mL; lowest concentration with viability less than 50%; read-out: Cytotoxicity (IC50)
Protocol: (§2) Cellular cytotoxicity was assessed using an MTT viability assay. HepG2 (ATCC HB-8065) cells were seeded at 1×10^4 cells/well in 96 well plates over night at 37 °C in DMEM supplemented with 10% FBS before use. Compounds were serially diluted with 2-fold dilution in culture media to afford a concentration ranging from 8 to 1024 μg/mL. After 24 h incubation, 10 μL of a 5 mg/mL solution of MTT was added to each well. After incubation for 2-4 h, upon discard of previous media, 100 μL of DMSO as solubilizing solution was added to each well, and absorbance at 570 nm were measured on a plate reader. Percent viability was determined by dividing background-corrected absorbance measurements by background corrected measurements for untreated cells. The lowest concentration for which percent viability was less than 50% was deemed the cytotoxicity IC50.

[5] = test system: Salmonella enterica Typhimurium (ST) ATCC 14028; assay: Susceptibility test (MIC), broth dilution, Salmonella enterica Typhimurium; type: cell-based; settings: Salmonella enterica Typhimurium ATCC 14028, 14-20 hour incubation, read-out: Minimum Inhibitory Concentration
Protocol: as §1

[6] = Hydrophobicity (comparison; RP-HPLC retention times in Table 1); type: physicochemical
Excerpt: The MIC and cytotoxicity results for previously-described quaternary ammonium COEs COE2-3C, COE2-3C-C4butyl, and COE2-3C-C4hexyl are consistent with previous data (See Limwongyut et al., Chem. Sci. (2020) 11 (31): 8138-8144).

[7] = test system: HepG2 (ATCC HB-8065) cells; assay: Cytotoxicity, MTT viability assay, HepG2; type: cell-based
Protocol: as §2

[8] = test system: all tested bacterial strains; assay: Susceptibility test, comparison over all tested bacterial strains; type: cell-based, Gram-positive and Gram-negative bacteria
Protocol: as §1

[9] = Formula A compared with COE2-3C and COE2-3C-C4butyl
[10] = Formula K and Formula A compared with each other
[11] = Formula C and Formula K compared with each other
[12] = Formula C compared with COE2-3C-C4butyl

| Compound | MIC [1] [µg/mL] | MIC (E. coli (EC) ATCC 25922) [µg/mL] | MIC [2] [µg/mL] | MIC [3] [µg/mL] | CC50 at 24 h [4] [µg/mL] | MIC [5] [µg/mL] | hydrophobicity (comparison) [6, 9] | cytotoxicity (comparison) [7, 10] | activity against all tested bacterial strains [8, 9] | activity against all tested bacterial strains ([8]; Formula A compared with Formula K) | hydrophobicity (comparison) [6, 11] | cytotoxicity (comparison) [7, 11] | activity against all tested bacterial strains [8, 11] | cytotoxicity (comparison) [7, 12] | activity against all tested bacterial strains [8, 12] |
| --- | --- | --- | --- | --- | --- | --- | --- | --- | --- | --- | --- | --- | --- | --- | --- |
| CCCN(CCCOc1cc(/C=C/c2ccc(/C=C/c3cc(OCCCN(CCC)C(=N)CC)cc(OCCCN(CCC)C(=N)CC)c3)cc2)cc(OCCCN(CCC)C(=N)CC)c1)C(=N)CC [Formula F] | 8 | 2 | 16 | 1 | 32 | 2 |  |  |  |  |  |  |  |  |  |
| C/N=C(\C)NCCCOc1cc(/C=C/c2ccc(/C=C/c3cc(OCCCN/C(C)=N/C)cc(OCCCN/C(C)=N/C)c3)cc2)cc(OCCCN/C(C)=N/C)c1 [Formula H] | 16 | 2 | 32 | 1 | > 1020 | 2 |  |  |  |  |  |  |  |  |  |
| CCC(=N)N(CCCOc1cc(/C=C/c2ccc(/C=C/c3cc(OCCCN(C(=N)CC)C4CC4)cc(OCCCN(C(=N)CC)C4CC4)c3)cc2)cc(OCCCN(C(=N)CC)C2CC2)c1)C1CC1 [Formula E] | 8 | 2 | 16 | 1 | 128 | 2 |  |  |  |  |  |  |  |  |  |
| CN(CCCOc1cc(/C=C/c2ccc(/C=C/c3cc(OCCCN(C)C(=N)C4CC4)cc(OCCCN(C)C(=N)C4CC4)c3)cc2)cc(OCCCN(C)C(=N)C2CC2)c1)C(=N)C1CC1 [Formula B] | 8 | 1 | 8 | 1 | 1020 | 1 |  |  |  |  |  |  |  |  |  |
| N=C(NCCCOc1cc(/C=C/c2ccc(/C=C/c3cc(OCCCNC(=N)C4CC4)cc(OCCCNC(=N)C4CC4)c3)cc2)cc(OCCCNC(=N)C2CC2)c1)C1CC1 [Formula A] | 4 | 1 | 2 | 0.5 | > 1020 | 1 | intermediate hydrophobicity | similar | considerably higher activity against all tested bacterial strains | more active against all tested bacterial strains |  |  |  |  |  |
| N=C(CC1CC1)NCCCOc1cc(/C=C/c2ccc(/C=C/c3cc(OCCCNC(=N)CC4CC4)cc(OCCCNC(=N)CC4CC4)c3)cc2)cc(OCCCNC(=N)CC2CC2)c1 [Formula G] | 4 | 2 | 8 | 1 | 256 | 2 |  |  |  |  |  |  |  |  |  |
| C(=C\c1cc(OCCCNC2=NCCC2)cc(OCCCNC2=NCCC2)c1)/c1ccc(/C=C/c2cc(OCCCNC3=NCCC3)cc(OCCCNC3=NCCC3)c2)cc1 [Formula J] | 16 | 1 | 16 | 1 | 1020 | 2 |  |  |  |  |  |  |  |  |  |
| C/C(=N\C1CC1)NCCCOc1cc(/C=C/c2ccc(/C=C/c3cc(OCCCN/C(C)=N/C4CC4)cc(OCCCN/C(C)=N/C4CC4)c3)cc2)cc(OCCCN/C(C)=N/C2CC2)c1 [Formula K] | 8 | 2 | 32 | 1 | > 1020 | 2 |  | similar |  |  | different | different cytotoxicity | identical activities against all tested bacterial strains |  |  |
| CCC(=N)N(C)CCCOc1cc(/C=C/c2ccc(/C=C/c3cc(OCCCN(C)C(=N)CC)cc(OCCCN(C)C(=N)CC)c3)cc2)cc(OCCCN(C)C(=N)CC)c1 [Formula D] | 16 | 1 | 8 | 1 | > 1020 | 2 |  |  |  |  |  |  |  |  |  |
| CCCN(CCCOc1cc(/C=C/c2ccc(/C=C/c3cc(OCCCN(CCC)C(=N)C4CC4)cc(OCCCN(CCC)C(=N)C4CC4)c3)cc2)cc(OCCCN(CCC)C(=N)C2CC2)c1)C(=N)C1CC1 [Formula C] | 8 | 2 | 32 | 1 | 16 | 2 |  |  |  |  | different | different cytotoxicity | identical activities against all tested bacterial strains | similar | more active against all tested bacterial strains |
